Active and inactive are the calls of the source.
How the values were obtained:
[1] = A Cell Based Secondary Assay To Explore Cytotoxicity of Compounds that Sensitize Mycobacterium Tuberculosis to Beta-Lactam Antibiotics.; assay type: functional
[2] = biological target: T1, Acyl-homoserine lactone acylase PvdQ (Pseudomonas aeruginosa (strain LESB58), UniProt Q9I194); assay: PvdQ acylase enzyme activity blockers – biochemical, fluorescence, plate reader and imaging, cherry-picks, dose response (AID 493231)
T1 sequence (Q9I194 whole entry): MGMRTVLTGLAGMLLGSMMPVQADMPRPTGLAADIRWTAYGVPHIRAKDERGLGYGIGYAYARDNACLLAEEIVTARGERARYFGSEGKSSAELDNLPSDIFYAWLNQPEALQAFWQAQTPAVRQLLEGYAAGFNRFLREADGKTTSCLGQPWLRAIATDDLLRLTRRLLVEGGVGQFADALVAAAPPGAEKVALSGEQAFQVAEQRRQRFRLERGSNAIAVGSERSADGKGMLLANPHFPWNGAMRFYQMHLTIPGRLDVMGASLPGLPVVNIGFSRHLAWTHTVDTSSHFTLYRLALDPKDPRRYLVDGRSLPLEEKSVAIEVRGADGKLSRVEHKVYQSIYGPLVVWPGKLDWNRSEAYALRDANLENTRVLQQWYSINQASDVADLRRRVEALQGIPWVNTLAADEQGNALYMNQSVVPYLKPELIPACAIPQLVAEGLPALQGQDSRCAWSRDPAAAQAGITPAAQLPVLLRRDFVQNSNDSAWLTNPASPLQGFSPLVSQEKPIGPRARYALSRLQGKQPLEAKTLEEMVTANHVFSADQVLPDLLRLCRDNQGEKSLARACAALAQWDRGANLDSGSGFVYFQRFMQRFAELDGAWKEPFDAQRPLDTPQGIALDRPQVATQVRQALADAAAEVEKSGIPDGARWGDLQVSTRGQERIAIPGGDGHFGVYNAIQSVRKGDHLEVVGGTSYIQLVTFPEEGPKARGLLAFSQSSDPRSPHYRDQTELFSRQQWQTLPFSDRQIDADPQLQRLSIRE

[3] = biological target: T2, Aminopeptidase N (Plasmodium falciparum FcB1/Columbia, UniProt O96935); assay: malaria alanyl aminopeptidase activity blockers – biochemical, fluorogenic H-Leu-NHMec substrate, 1536-well (AID 1445); parameters: species or system Plasmodium falciparum 3D7, 3D7
T2 sequence (O96935 whole entry): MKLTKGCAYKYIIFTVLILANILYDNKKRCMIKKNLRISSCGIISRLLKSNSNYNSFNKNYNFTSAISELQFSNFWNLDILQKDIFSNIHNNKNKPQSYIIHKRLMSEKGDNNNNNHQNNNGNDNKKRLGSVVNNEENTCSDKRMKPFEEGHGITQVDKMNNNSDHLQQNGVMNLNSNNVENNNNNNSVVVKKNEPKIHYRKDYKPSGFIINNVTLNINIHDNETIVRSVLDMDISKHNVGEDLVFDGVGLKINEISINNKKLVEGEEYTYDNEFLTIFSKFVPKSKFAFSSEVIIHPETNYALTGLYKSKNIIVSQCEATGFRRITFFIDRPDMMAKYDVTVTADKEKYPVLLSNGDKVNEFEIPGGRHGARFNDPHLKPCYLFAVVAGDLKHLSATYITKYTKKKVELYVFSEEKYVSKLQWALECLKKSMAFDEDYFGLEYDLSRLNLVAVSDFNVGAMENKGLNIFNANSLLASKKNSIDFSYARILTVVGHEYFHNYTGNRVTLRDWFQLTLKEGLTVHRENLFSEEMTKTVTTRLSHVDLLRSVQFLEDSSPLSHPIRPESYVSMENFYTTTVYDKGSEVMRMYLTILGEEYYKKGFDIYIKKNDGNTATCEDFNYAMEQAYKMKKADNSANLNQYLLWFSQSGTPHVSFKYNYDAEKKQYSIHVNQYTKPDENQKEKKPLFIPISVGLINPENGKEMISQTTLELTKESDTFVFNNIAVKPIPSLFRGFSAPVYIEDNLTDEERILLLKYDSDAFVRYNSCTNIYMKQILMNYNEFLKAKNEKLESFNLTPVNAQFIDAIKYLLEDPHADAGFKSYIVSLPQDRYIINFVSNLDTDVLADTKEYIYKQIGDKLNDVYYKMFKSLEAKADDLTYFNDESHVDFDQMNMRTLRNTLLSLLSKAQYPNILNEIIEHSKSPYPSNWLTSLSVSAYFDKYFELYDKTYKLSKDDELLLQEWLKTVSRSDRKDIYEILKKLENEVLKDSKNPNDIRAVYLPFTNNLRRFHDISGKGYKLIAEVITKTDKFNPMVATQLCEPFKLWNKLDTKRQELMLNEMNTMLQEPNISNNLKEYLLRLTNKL

[4] = decrease of insulin promoter-GFP reporter – imaging, high-content screening, mouse beta cells (AID 1628); assay type: functional; settings: MIN6
[5] = MIN6 cell viability loss – mouse insulinoma, cytotoxicity control, dose response (AID 2122); assay type: functional;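 further: confirmatory high-throughput counterscreen run to flag cytotoxic compounds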
[6] = biological target: T3, ORF 73 (Human herpesvirus 8, UniProt O40947); assay: KSHV LANA DNA-binding disruption – biochemical, fluorescence polarization, cherry-picked samples, dose response (AID 504725); parameters: species or system Human gammaherpesvirus 8;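 further: fluorescence polarization of a labeled DNA duplex reporting LANA DNA binding; potency is for inhibitors that block LANA binding to the DNA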
T3 sequence (O40947 whole entry): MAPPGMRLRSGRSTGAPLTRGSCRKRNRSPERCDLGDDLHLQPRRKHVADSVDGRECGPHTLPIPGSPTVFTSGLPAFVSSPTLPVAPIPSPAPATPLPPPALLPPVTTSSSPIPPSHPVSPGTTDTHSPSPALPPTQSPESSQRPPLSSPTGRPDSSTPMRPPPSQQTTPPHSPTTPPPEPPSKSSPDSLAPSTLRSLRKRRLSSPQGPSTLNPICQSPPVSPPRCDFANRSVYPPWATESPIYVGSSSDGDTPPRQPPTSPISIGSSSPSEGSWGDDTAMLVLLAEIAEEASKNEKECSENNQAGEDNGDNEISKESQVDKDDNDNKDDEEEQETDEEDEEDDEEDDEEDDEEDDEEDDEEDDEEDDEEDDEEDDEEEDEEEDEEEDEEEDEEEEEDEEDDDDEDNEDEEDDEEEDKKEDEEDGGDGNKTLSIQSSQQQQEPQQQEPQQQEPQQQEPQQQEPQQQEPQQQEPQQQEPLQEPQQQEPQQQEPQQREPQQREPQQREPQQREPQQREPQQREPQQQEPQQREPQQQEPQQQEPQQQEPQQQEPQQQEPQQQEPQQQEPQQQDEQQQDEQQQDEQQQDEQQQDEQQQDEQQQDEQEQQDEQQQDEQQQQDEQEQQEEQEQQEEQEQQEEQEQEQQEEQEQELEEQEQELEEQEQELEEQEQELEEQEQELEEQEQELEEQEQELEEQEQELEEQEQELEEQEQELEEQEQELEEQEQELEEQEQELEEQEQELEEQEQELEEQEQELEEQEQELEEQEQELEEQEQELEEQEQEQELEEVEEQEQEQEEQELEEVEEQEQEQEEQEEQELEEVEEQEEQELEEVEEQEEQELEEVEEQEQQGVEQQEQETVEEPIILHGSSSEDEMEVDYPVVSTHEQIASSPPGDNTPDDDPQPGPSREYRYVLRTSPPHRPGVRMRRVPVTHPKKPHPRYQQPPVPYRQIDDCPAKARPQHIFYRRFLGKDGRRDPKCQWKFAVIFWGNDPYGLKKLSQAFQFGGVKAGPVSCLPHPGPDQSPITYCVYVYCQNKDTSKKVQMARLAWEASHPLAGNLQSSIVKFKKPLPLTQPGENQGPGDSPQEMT

[7] = Trypanosoma cruzi growth suppression in host cells – NIH3T3 host cells, beta-gal luminescence, confirmation (AID 2044); assay type: functional, cell-based;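 further: intracellular parasites grown in NIH/3T3 mouse fibroblasts as host cells; luminescent beta-galactosidase reporter signal from transgenic T. cruzi replicating inside host cells; inhibitors lower the luminescence signal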
[8] = NIH3T3 cell viability loss – ATP luminescence, mouse fibroblasts, counter-screen, dose response (AID 2010); assay type: functional, cell-based;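 further: cells exposed to compound for about 90 hours before reading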
[9] = test system: HEK293; assay: EBV LMP1 TES2 canonical NF-kB signalling blockers – cell-based, HEK293, luciferase, cherry-pick, dose response (AID 588343); assay type: functional; settings: Homo sapiens
[10] = biological target: T4, Leucine aminopeptidase (Plasmodium falciparum 3D7, UniProt Q8IL11); assay: P. falciparum M17LAP inhibitors, primary screen, biochemical, fluorogenic H-Leu-NHMec substrate, 1536-well (AID 1619); assay type: functional
T4 sequence (Q8IL11 whole entry): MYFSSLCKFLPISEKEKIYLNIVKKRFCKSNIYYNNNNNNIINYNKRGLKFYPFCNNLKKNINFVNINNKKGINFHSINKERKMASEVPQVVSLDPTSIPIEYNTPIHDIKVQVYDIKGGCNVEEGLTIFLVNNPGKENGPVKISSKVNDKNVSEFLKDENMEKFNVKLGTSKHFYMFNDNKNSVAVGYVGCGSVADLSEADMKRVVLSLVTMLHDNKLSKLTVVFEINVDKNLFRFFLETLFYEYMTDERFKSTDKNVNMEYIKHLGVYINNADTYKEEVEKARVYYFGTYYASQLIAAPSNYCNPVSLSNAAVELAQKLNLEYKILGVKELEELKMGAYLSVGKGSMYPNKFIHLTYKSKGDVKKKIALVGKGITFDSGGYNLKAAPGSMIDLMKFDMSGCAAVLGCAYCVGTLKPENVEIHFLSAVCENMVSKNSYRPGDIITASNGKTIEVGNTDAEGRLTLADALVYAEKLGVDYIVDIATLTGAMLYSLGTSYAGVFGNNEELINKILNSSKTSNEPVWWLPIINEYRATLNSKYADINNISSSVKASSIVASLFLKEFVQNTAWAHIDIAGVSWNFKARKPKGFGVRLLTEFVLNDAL

[11] = biological target: Large T antigen (Simian virus 40, UniProt P03070); assay type: functional, Betapolyomavirus macacae;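 further: Confirmatory-stage PubChem screen for compounds that inhibit SV40 T antigen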
[12] = biological target: T5, Rac GTPase-activating protein 1 (Homo sapiens, UniProt Q9H0H5); assay: blockers of MgcRacGAP-driven Rac1 GTP hydrolysis – biochemical, ADP Hunter fluorescence, primary and confirmatory, confirmation (AID 624330); assay type: functional
T5 sequence (Q9H0H5 whole entry): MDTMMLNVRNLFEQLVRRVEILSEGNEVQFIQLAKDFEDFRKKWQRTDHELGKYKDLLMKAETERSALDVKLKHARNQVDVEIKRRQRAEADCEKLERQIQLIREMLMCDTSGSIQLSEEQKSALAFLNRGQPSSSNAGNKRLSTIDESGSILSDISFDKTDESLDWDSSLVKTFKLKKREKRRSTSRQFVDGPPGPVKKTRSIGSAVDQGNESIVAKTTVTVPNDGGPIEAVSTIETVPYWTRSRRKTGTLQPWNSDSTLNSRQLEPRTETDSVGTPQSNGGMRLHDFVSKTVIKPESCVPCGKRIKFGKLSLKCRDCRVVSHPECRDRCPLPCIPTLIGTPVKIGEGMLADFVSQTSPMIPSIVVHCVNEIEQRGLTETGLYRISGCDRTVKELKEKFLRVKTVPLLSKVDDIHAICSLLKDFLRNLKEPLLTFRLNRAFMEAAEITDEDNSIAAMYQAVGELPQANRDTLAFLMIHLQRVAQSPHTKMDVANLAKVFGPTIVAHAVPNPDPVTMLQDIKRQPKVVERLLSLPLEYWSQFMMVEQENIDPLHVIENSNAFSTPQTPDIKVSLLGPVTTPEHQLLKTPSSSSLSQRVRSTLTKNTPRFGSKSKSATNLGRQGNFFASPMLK

Chain of Large T antigen (P03070 whole entry): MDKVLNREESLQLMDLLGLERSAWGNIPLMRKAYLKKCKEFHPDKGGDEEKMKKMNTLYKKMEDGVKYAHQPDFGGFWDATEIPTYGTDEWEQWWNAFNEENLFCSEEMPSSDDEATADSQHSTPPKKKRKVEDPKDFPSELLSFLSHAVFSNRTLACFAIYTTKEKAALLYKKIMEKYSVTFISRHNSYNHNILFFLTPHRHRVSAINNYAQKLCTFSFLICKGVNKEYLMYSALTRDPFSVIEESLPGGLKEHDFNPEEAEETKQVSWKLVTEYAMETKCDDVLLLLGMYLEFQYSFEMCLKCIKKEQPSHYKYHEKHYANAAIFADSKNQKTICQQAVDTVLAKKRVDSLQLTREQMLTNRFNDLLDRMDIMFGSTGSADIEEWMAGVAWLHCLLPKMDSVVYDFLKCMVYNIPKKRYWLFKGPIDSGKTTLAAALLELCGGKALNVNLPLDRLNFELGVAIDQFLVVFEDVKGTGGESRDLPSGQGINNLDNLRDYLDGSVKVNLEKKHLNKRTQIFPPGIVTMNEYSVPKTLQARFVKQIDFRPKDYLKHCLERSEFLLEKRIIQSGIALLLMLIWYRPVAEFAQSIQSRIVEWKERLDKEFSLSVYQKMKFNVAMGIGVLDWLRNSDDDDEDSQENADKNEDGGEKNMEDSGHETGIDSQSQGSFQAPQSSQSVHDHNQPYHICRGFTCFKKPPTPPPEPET

COCc1cc(O)n2ncc(-c3ccccc3)c2n1
CC50 [1]: > 40 µM (active)

O=C(/C=C/c1ccc2c(c1)OCCO2)c1ccccc1
AC50 [2]: 29.3 µM (active)

CCOC(=O)N1CCN(C(=O)c2ccc3c(c2)sc2nc(-c4ccccc4)cn23)CC1
IC50 [3]: 73.4 µM (active)

Cn1nc(-c2ccc(OCC(=O)NCC3CCCO3)cc2)c2ccccc2c1=O (stereo not drawn)
CC50 [1]: > 40 µM (active)

Cc1cccc(NC(S)=NC(C)(C)CC(C)(C)C)c1
IC50 [4]: 1.92 µM (active) | IC50 [5]: 1.87 µM (active)

O=C(/C=C/c1cccc([N+](=O)[O-])c1)N1CCN(Cc2ccc3c(c2)OCO3)CC1
IC50 [3]: 108 µM (active)

COc1ccc(Cn2c(C)nc3c(c(=O)c4ccccc4n3C)c2=O)cc1
CC50 [1]: > 40 µM (active)

COCCN(CCOC)Cc1c(O)ccc2c1O/C(=C\c1ccco1)C2=O
AC50 [6]: 11.9 µM (active)

Cc1ccc(NC(=O)Nc2cccs2)nc1
IC50 [3]: 26.4 µM (active)

COc1ccc(NC(=S)N(CCCN2CCCC2)Cc2cccn2Cc2ccc(Cl)cc2)cc1Cl
IC50 [4]: 2.89 µM (active) | IC50 [5]: 3.27 µM (active)

C=CCOC(=O)c1ccc(-n2cnc(C)n2)nc1
AC50 [2]: 4.58 µM (active)

CCOc1ccc(Nc2ncnc3ccc([N+](=O)[O-])cc23)cc1
EC50 [7]: 2.22 µM (active) | EC50 [8]: > 60 µM (not active) | AC50 [2]: 30.8 µM (active) | AC50 [9]: 8.95 µM (active)

O=[N+]([O-])c1ccc(-c2cccnc2)cc1
AC50 [2]: 13.1 µM (active)

COc1ccc2c(c1)c(C(=O)N/N=C/c1ccc(O)c(O)c1)c(C)n2C
IC50 [10]: 29.7 µM (active) | IC50 [11]: 16.7 µM (active) | IC50 [12]: 23.5 µM (active)

C/C(=N\Nc1cc(N2CCOCC2)nc(C)n1)c1cccc([N+](=O)[O-])c1
IC50 [4]: 1.98 µM (active) | IC50 [5]: 3.14 µM (active)

Reference: ChEMBL document CHEMBL1201862, “PubChem BioAssay data set” (2004)
